Measured values from patent US6794397B2, “Substituted nicotinamides and analogs as activators of caspases and inducers of apoptosis and the use thereof” (Cytovia, Inc., priority 2000, dated 2004).
Where two headings read alike, the source gives them in different places.

What was measured:
ZR75-1 = test: Caspase cascade activation assay (N-(Ac-DEVD)-N'-ethoxycarbonyl-R110 fluorogenic substrate) in ZR75-1 cells; format: cell-based, Human; conditions: for EC50 (nM) caspase potency / EC50: sigmoidal dose-response; for Caspase activity Ratio: ratio of net RFU of test compound to control, 0.16 to 10 μM final; for EC50: read-out: EC50 (nM) caspase potency
Description: (§1) Human breast cancer cell lines T47D and ZR75-1 were grown according to media component mixtures designated by American Type Culture Collection +10% FCS (Invitrogen Corporation, Life Technologies Division), in a 5% CO2 −95% humidity incubator at 37° C. T47D and ZR75-1 cells were maintained at a cell density between 30 and 80% confluency at a cell density of 0.1 to 0.6×10^6 cells/ml. Cells were harvested at 600xg and resuspended at 0.65×10^6 cells/ml into appropriate media +10% FCS. An aliquot of 45 μl of cells was added to a well of a 96-well microtiter plate containing 5 μl of a 10% DMSO in RPMI-1640 media solution containing 1.6 to 100 μM of N-(4-methoxy-2-nitrophenyl)-3-pyridinecarboxamide or other test compound (0.16 to 10 μM final). An aliquot of 45 μl of cells was added to a well of a 96-well microtiter plate containing 5 μl of a 10% DMSO in RPMI-1640 media solution without test compound as the control sample. The samples were mixed by agitation and then incubated at 37 C. for 24 h in a 5% CO2 −95% humidity incubator. After incubation, the samples were removed from the incubator and 50 μl of a solution containing 20 μM of N-(Ac-DEVD)-N′-ethoxycarbonyl-R110 (SEQ ID NO: 1) fluorogenic substrate (Cytovia, Inc.; WO99/18856), 20% sucrose (Sigma), 20 mM DTT (Sigma), 200 mM NaCl (Sigma), 40 mM Na PIPES buffer pH 7.2 (Sigma), and 500 μg/ml lysolecithin (Calbiochem) was added. The samples were mixed by agitation and incubated at room temperature. Using a fluorescent plate reader (Model 1420 Wallac Instruments), an initial reading (T=0) was made approximately 1-2 min after addition of the substrate solution, employing excitation at 485 nm and emission at 530 nm, to determine the background fluorescence of the control sample. After the 3 h incubation, the samples were read for fluorescence as above (T=3 h).
(§2) The Relative Fluorescence Unit values (RFU) were used to calculate the sample readings as follows:
(§3) RFU(T=3h)−Control RFU(T=0)=Net RFU(T=3h).
(§4) The activity of caspase cascade activation was determined by the ratio of the net RFU value for N-(4-methoxy-2-nitrophenyl)-3-pyridinecarboxamide or other test compound to that of control samples. The EC50 (nM) was determined by a sigmoidal dose-response calculation (Prism 2.0, GraphPad Software Inc.).

T47D = test: Caspase cascade activation assay (N-(Ac-DEVD)-N'-ethoxycarbonyl-R110 fluorogenic substrate) in T47D cells; format: cell-based, Human; conditions: 24 h incubation; for EC50 (nM) caspase potency / EC50: sigmoidal dose-response; for Caspase activity Ratio: ratio of net RFU of test compound to control, 0.16 to 10 μM final; for EC50: read-out: EC50 (nM) caspase potency
Description: as §1, §2, §3, §4

[1] = Homo sapiens, ZR-75-1, 24 h incubation

EC50 (nM) caspase potency (ZR75-1; 24 h incubation)	EC50 (nM) caspase potency (T47D)	EC50 (ZR75-1; 24 h incubation)	EC50 (T47D)	EC50 (ZR75-1; [1])	EC50 (T47D; Homo sapiens)	Compound	Caspase activity Ratio (ZR75-1; 24 h incubation)	Caspase activity Ratio (T47D)
Inactive	Inactive					CCOc1ccc(N(C)C(=O)c2ccc(Cl)nc2)c([N+](=O)[O-])c1 [Example 30, 6-Chloro-N-(4-ethoxy-2-nitrophenyl)-N-methyl-3-pyridinecarboxamide]	Inactive	Inactive
		3840 nM	6750 nM			4-Chloro-N-(4-ethoxy-2-nitrophenyl)-benzoylamide [Example 18]	5.1	3.0
	Inactive			4030 nM		COc1cc([N+](=O)[O-])c(NC(=O)c2ccc(Cl)nc2)cc1Br [Example 4, 6-Chloro-N-(3-bromo-4-methoxy-6-nitrophenyl)-3-pyridinecarboxamide]	3.2	Inactive
Inactive	Inactive					COc1ccc(NC(=O)c2ccc(Cl)nc2Cl)c([N+](=O)[O-])c1 [Example 15, 2,6-Dichloro-N-(4-methoxy-2-nitrophenyl)-3-pyridinecarboxamide]	Inactive	Inactive
				230 nM	593 nM	COc1ccc(NC(=O)c2ccc(Cl)nc2)c([N+](=O)[O-])c1 [Example 7, 6-Chloro-N-(4-methoxy-2-nitrophenyl)-3-pyridinecarboxamide]	2.7	8.1
Inactive	Inactive					O=C(Nc1ccccc1[N+](=O)[O-])c1ccc(Cl)nc1 [Example 10, 6-Chloro-N-(2-nitrophenyl)-3-pyridinecarboxamide]	Inactive	Inactive
Inactive	Inactive					COc1ccc(NC(=O)c2cc(Cl)nc(Cl)c2)c([N+](=O)[O-])c1 [Example 12, 2,6-Dichloro-N-(4-methoxy-2-nitrophenyl)-4-pyridinecarboxamide]	Inactive	Inactive
				295 nM	466 nM	CCOc1ccc(NC(=O)c2ccc(F)nc2)c([N+](=O)[O-])c1 [Example 22, 6-Fluoro-N-(4-ethoxy-2-nitrophenyl)-3-pyridinecarboxamide]	6.6	7.6
	Inactive			4620 nM		O=C(Nc1ccc(F)cc1[N+](=O)[O-])c1ccc(Cl)nc1 [Example 3, 6-Chloro-N-(4-fluoro-2-nitrophenyl)-3-pyridinecarboxamide]	2.1	Inactive
Inactive	Inactive					O=C(Nc1ccc(C(=O)c2ccccc2)cc1[N+](=O)[O-])c1ccc(Cl)nc1 [Example 24, 6-Chloro-N-(4-benzoyl-2-nitrophenyl)-3-pyridinecarboxamide]	Inactive	Inactive
		4510 nM	7330 nM			COc1ccc(NC(=O)c2ccc(Cl)[n+]([O-])c2)c([N+](=O)[O-])c1 [Example 28, 6-Chloro-N-(4-methoxy-2-nitrophenyl)-1-N-oxide-3-pyridinecarboxamide]	5.1	2.4
				729 nM	2970 nM	O=C(Nc1ccc(C(F)(F)F)cc1[N+](=O)[O-])c1ccc(Cl)nc1 [Example 1, 6-Chloro-N-(2-nitro-4-trifluoromethylphenyl)-3-pyridinecarboxamide]	3.6	8.9
Inactive	Inactive					COc1ccc(NC(=O)c2ccc(Cl)nc2)c(OC)c1 [Example 5, 6-Chloro-N-(2,4-dimethoxyphenyl)-3-pyridinecarboxamide]	Inactive	Inactive
				20 nM	42 nM	CCOc1ccc(NC(=O)c2ccc(C)nc2)c([N+](=O)[O-])c1 [Example 26, 6-Methyl-N-(4-ethoxy-2-nitrophenyl)-3-pyridinecarboxamide]	3.2	5.5
		171 nM	608 nM			O=C(Nc1ccc(OC(F)(F)F)cc1[N+](=O)[O-])c1ccc(Cl)nc1 [Example 23, 6-Chloro-N-(2-nitro-4-tifluoromethoxyphenyl)-3-pyridinecarboxamide]	9.9	7.2
Inactive	Inactive					COc1ccc(NC(=O)c2cnc(Cl)c(Cl)c2)c([N+](=O)[O-])c1 [Example 16, 5,6-Dichloro-N-(4-methoxy-2-nitrophenyl)-3-pyridinecarboxamide]	Inactive	Inactive
Inactive	Inactive					COc1ccc(NC(=O)c2cccnc2Cl)c([N+](=O)[O-])c1 [Example 6, 2-Chloro-N-(4-methoxy-2-nitrophenyl)-3-pyridinecarboxamide]	Inactive	Inactive
Inactive	Inactive					COc1ccc(NC(=O)c2ccncc2)c([N+](=O)[O-])c1 [Example 14, N-(4-methoxy-2-nitrophenyl)-4-pyridinecarboxamide]	Inactive	Inactive
				6880 nM	3550 nM	O=C(Nc1cc(F)c(F)cc1[N+](=O)[O-])c1ccc(Cl)nc1 [Example 19, 6-Chloro-N-(4,5-difluoro-2-nitrophenyl)-3-pyridinecarboxamide]	3.8	2.7
Inactive	Inactive					COc1ccc(NC(=O)c2ccc(Cl)nc2)cc1 [Example 11, 6-Chloro-N-(4-methoxyphenyl)-3-pyridinecarboxamide]	Inactive	Inactive
Inactive	Inactive					COc1ccc(NC(=O)c2cnc(Cl)nc2C(F)(F)F)c([N+](=O)[O-])c1 [Example 13, 2-Chloro-4trifluoromethyl-N-(4methoxy-2-nitrophenyl)-5-pyrimidinecarboxamide]	Inactive	Inactive
Inactive	Inactive					COc1ccc(NC(=O)c2ccc(Cl)nc2)c(C)c1 [Example 20, 6-Chloro-N-(4-methoxy-2-methylphenyl)-3-pyridinecarboxamide]	Inactive	Inactive

Compound	EC50 (nM) caspase potency (ZR75-1; 24 h incubation)	EC50 (nM) caspase potency (T47D)	EC50 (ZR75-1; 24 h incubation)	EC50 (T47D)	EC50 (ZR75-1; [1])	EC50 (T47D; Homo sapiens)	Caspase activity Ratio (ZR75-1; 24 h incubation)	Caspase activity Ratio (T47D)
O=C(Nc1ccc([N+](=O)[O-])cc1[N+](=O)[O-])c1ccc(Cl)nc1 [Example 17, 6-Chloro-N-(2,4-dinitrophenyl)-3-pyridinecarboxamide]	Inactive	Inactive					Inactive	Inactive
